Tests used:
Assay in all cases: Kinase Assay
[1] = molecular target: RAF proto-oncogene serine/threonine-protein kinase (Homo sapiens, UniProt P04049)
Description: (§1) The assay is not in detail.

[2] = molecular target: Serine/threonine-protein kinase B-raf (Homo sapiens, UniProt P15056)
Description: as §1

[3] = molecular target: Serine/threonine-protein kinase B-raf [V600E] (Homo sapiens, UniProt P15056, V600E)
Description: as §1

[4] = molecular target: Tyrosine-protein kinase CSK (Homo sapiens, UniProt P41240)
Description: as §1

[5] = molecular target: Tyrosine-protein kinase Lck (Homo sapiens, UniProt P06239)
Description: as §1

Sequence of Tyrosine-protein kinase CSK (P41240 whole entry): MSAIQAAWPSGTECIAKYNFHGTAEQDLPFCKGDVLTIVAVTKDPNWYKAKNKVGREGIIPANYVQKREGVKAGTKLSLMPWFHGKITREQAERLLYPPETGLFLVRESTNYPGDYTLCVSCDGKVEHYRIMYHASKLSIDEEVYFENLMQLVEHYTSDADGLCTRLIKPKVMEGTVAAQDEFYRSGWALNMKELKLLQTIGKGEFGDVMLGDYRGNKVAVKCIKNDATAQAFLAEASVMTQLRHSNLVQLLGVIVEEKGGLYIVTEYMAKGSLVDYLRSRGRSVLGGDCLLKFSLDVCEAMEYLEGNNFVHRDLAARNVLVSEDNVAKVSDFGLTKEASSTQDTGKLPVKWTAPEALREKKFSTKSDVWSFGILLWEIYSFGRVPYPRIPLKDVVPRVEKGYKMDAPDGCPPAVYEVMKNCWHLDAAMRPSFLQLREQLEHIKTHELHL
Sequence of RAF proto-oncogene serine/threonine-protein kinase (P04049 whole entry): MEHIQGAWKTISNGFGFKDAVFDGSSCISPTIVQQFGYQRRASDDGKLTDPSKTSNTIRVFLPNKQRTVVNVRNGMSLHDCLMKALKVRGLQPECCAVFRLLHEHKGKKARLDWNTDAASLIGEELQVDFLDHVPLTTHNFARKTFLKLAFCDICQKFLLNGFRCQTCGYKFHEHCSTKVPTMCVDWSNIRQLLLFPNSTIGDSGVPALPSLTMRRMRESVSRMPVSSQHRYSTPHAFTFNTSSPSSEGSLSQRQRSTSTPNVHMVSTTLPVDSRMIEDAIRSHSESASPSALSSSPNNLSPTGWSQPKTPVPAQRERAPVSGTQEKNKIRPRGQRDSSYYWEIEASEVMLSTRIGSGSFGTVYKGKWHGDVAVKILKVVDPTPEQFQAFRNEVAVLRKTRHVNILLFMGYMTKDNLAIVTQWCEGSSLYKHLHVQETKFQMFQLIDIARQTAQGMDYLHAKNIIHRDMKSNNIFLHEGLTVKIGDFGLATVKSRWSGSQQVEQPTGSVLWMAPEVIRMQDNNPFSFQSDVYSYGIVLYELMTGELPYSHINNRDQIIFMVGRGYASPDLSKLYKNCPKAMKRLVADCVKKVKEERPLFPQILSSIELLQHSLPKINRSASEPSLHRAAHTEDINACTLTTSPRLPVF
Sequence of Serine/threonine-protein kinase B-raf (P15056 whole entry): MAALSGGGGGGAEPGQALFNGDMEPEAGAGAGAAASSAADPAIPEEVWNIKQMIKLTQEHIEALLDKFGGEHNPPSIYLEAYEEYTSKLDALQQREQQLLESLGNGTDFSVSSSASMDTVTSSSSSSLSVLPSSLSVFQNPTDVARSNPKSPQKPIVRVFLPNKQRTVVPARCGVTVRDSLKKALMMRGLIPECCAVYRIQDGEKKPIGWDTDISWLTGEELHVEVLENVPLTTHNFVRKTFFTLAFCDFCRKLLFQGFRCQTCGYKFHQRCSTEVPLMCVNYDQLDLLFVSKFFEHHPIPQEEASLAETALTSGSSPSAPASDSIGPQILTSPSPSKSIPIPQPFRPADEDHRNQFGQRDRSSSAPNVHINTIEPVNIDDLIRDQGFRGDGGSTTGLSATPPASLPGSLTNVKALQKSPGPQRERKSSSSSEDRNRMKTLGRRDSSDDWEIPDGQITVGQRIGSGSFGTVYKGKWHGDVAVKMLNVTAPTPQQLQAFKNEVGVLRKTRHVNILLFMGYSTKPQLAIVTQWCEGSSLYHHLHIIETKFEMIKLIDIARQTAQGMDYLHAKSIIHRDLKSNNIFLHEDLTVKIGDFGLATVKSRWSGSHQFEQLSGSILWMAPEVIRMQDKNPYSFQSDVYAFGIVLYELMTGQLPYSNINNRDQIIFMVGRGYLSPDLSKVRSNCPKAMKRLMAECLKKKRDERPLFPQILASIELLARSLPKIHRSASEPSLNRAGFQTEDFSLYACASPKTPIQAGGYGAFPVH
Sequence of Serine/threonine-protein kinase B-raf [V600E] (P15056 2-766 V600E limits assumed): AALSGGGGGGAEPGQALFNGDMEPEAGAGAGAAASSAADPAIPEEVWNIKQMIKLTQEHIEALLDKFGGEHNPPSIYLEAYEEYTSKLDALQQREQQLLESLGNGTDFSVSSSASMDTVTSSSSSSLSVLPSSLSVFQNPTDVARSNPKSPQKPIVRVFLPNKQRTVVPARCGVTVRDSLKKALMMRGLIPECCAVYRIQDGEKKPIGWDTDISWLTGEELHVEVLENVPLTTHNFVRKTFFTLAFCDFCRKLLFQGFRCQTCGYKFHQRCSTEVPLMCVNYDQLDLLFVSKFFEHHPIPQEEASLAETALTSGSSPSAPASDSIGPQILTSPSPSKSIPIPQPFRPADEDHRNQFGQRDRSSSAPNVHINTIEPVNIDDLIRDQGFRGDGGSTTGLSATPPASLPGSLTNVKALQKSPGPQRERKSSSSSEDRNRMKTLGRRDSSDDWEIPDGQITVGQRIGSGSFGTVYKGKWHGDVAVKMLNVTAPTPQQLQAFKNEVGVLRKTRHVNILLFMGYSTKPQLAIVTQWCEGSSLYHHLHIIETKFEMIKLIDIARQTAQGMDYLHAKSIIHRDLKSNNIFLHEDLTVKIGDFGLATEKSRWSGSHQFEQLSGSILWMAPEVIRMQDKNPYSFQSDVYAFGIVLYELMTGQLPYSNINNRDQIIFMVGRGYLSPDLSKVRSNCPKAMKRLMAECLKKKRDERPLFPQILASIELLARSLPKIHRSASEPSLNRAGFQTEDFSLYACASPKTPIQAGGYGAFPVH
Sequence of Tyrosine-protein kinase Lck (P06239 whole entry): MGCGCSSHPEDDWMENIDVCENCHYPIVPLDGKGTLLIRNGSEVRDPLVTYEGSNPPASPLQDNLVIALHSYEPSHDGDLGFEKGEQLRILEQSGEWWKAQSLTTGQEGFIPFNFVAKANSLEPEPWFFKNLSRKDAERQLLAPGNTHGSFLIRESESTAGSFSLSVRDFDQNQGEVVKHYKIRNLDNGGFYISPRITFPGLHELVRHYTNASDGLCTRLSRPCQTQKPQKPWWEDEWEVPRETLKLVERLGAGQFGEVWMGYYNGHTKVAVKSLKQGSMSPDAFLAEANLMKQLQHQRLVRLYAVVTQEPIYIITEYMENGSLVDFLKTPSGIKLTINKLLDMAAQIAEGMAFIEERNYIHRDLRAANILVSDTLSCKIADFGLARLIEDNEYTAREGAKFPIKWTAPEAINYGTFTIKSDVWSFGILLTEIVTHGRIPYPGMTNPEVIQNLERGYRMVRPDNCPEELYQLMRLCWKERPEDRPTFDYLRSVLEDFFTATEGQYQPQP

Cn1cnc2ccc(Oc3c(Cl)ccc(NS(=O)(=O)N4CCCC4)c3C#N)cc2c1=O [US20240174621, Example AR-31]
Kd [1]: 190 nM | Kd [2]: 45.9 nM | Kd [3]: 119 nM | Kd [4]: 1210 nM | Kd [5]: 12000 nM

CN(C)S(=O)(=O)Nc1ccc(Cl)c(Oc2ccc3ncn(C)c(=O)c3c2)c1C#N [US20240174621, Example AR-30]
Kd [1]: 822 nM | Kd [2]: 174 nM | Kd [3]: 504 nM | Kd [4]: 8010 nM | Kd [5]: 10400 nM
